Data taken from article PMC9386018, “A lymphatic-absorbed multi-targeted kinase inhibitor for myelofibrosis therapy” (Nature Communications, 2022).
Values joined by “and” are separate entries in the source; they are usually repeats but may differ in a detail not shown here. Identical values can stand only once.

Experiment: Pharmacokinetic analysis of plasma after intravenous and oral dosing
Conditions: for concentration at 0.5 h / concentration at 1 h / concentration at 2 h / concentration at 4 h / concentration at 7 h / concentration at 24 h / half-life: female, CD-1, mouse

For `O=C(NOCCOCCOCCOCCC(=O)N1CCN(c2cnc3ccc(-c4cnc(Cl)c(NS(=O)(=O)c5ccc(F)cc5)c4)cc3n2)CC1)c1ccc(F)c(F)c1Nc1ccc(I)cc1F` [LP-182, N-(2-(2-(2-(3-(4-(7-(6-chloro-5-((4-fluorophenyl)sulfonamido)pyridin-3-yl)quinoxalin-2-yl)piperazin-1-yl)-3-oxopropoxy)ethoxy)ethoxy)ethoxy)-3,4-difluoro-2-((2-fluoro-4-iodophenyl)amino)benzamide], the Concentration (Supplementary Figure 6a, p.o., Time 0.5 h, individual replicates) was 2150 ng/mL and 2630 ng/mL, the Concentration (Supplementary Figure 6a, p.o., Time 1 h, individual replicates) was 1580 ng/mL and 1950 ng/mL and the Concentration (Supplementary Figure 6a, p.o., Time 2 h, individual replicates) was 424 ng/mL and 145 ng/mL and 74.1 ng/mL. For the same compound, the Concentration (Supplementary Figure 6a, p.o., Time 4 h, individual replicates) was 146 ng/mL and 522 ng/mL and 339 ng/mL, the Concentration (Supplementary Figure 6a, p.o., Time 7 h, individual replicates) was 331 ng/mL and 97.6 ng/mL and 1560 ng/mL and the Concentration (Supplementary Figure 6a, p.o., Time 16 h, individual replicates) was 79.2 ng/mL and 205 ng/mL and 265 ng/mL. For the same compound, the Concentration (Supplementary Figure 6a, p.o., Time 24 h, individual replicates) was 401 ng/mL and 114 ng/mL and 295 ng/mL, the concentration at 0.5 h (plasma, iv, 15 mg kg^−1, Concentration (ng/mL), mice, single i.v. LP-182 15 mg kg^−1, 0.5 h, analyte = label, individual animals) was 1180 ng/mL and the concentration at 1 h (plasma, iv, 15 mg kg^−1, Concentration (ng/mL), mice, single i.v. LP-182 15 mg kg^−1, 1 h, analyte = label, individual animals) was 524 ng/mL. For the same compound, the concentration at 2 h (plasma, iv, 15 mg kg^−1, Concentration (ng/mL), mice, single i.v. LP-182 15 mg kg^−1, 2 h, analyte = label, individual animals) was 275 ng/mL, the concentration at 4 h (plasma, iv, 15 mg kg^−1, Concentration (ng/mL), mice, single i.v. LP-182 15 mg kg^−1, 4 h, analyte = label, individual animals) was 83.2 ng/mL and the concentration at 7 h (plasma, iv, 15 mg kg^−1, Concentration (ng/mL), mice, single i.v. LP-182 15 mg kg^−1, 7 h, analyte = label, individual animals) was 29.2 ng/mL. For the same compound, the concentration at 24 h (plasma, iv, 15 mg kg^−1, Concentration (ng/mL), mice, single i.v. LP-182 15 mg kg^−1, 24 h, analyte = label, individual animals) was 9.67 ng/mL, the concentration at 0.5 h (plasma, iv, 15 mg kg^−1, Concentration, Supplementary Figure 6a, Time 0.5 h, individual replicates) was 1180 ng/mL and the concentration at 1 h (plasma, iv, 15 mg kg^−1, Concentration, Supplementary Figure 6a, Time 1 h, individual replicates) was 524 ng/mL. It also gave a concentration at 2 h (plasma, iv, 15 mg kg^−1, Concentration, Supplementary Figure 6a, Time 2 h, individual replicates) of 275 ng/mL, a concentration at 4 h (plasma, iv, 15 mg kg^−1, Concentration, Supplementary Figure 6a, Time 4 h, individual replicates) of 83.2 ng/mL and a concentration at 7 h (plasma, iv, 15 mg kg^−1, Concentration, Supplementary Figure 6a, Time 7 h, individual replicates) of 29.2 ng/mL. It also gave a concentration at 24 h (plasma, iv, 15 mg kg^−1, Concentration, Supplementary Figure 6a, Time 24 h, individual replicates) of 9.67 ng/mL, a half-life (plasma, iv, 15 mg/kg) of 7.9 h and a concentration at 0.5 h (plasma, po, 400 mg kg^−1, Concentration (ng/mL), mice, single p.o. LP-182 400 mg kg^−1, 0.5 h, analyte = label, individual animals) of 2530 ng/mL. It also gave a concentration at 1 h (plasma, po, 400 mg kg^−1, Concentration (ng/mL), mice, single p.o. LP-182 400 mg kg^−1, 1 h, analyte = label, individual animals) of 1240 ng/mL, a concentration at 0.5 h (plasma, po, 400 mg kg^−1, Concentration, Supplementary Figure 6a, Time 0.5 h, individual replicates) of 2530 ng/mL and a concentration at 1 h (plasma, po, 400 mg kg^−1, Concentration, Supplementary Figure 6a, Time 1 h, individual replicates) of 1240 ng/mL. The half-life (plasma, po, 400 mg/kg) was 12.7 h, the “plasma level maintained over 24 h” value (mice, after oral LP-182 400 mg kg^−1, analyte = label) was ~ 300 ng mL^-1 and the “Concentration” value (mice, plasma, single i.v. LP-182 15 mg kg^−1, 0.167 h, analyte = label, individual animals) was 11100 ng/mL and 8270 ng/mL and 5220 ng/mL. The “Concentration” value (mice, plasma, single i.v. LP-182 15 mg kg^−1, 0.5 h, analyte = label, individual animals) was 807 ng/mL and 646 ng/mL, the “Concentration” value (mice, plasma, single i.v. LP-182 15 mg kg^−1, 1 h, analyte = label, individual animals) was 451 ng/mL and 857 ng/mL and the “Concentration” value (mice, plasma, single i.v. LP-182 15 mg kg^−1, 2 h, analyte = label, individual animals) was 275 ng/mL and 179 ng/mL. For the same compound, the “Concentration” value (mice, plasma, single i.v. LP-182 15 mg kg^−1, 4 h, analyte = label, individual animals) was 141 ng/mL and 75.9 ng/mL, the “Concentration” value (mice, plasma, single i.v. LP-182 15 mg kg^−1, 7 h, analyte = label, individual animals) was 51.4 ng/mL and 34.3 ng/mL and the “Concentration” value (mice, plasma, single i.v. LP-182 15 mg kg^−1, 16 h, analyte = label, individual animals) was 30.6 ng/mL and 29.3 ng/mL and 5.58 ng/mL. For the same compound, the “Concentration” value (mice, plasma, single i.v. LP-182 15 mg kg^−1, 24 h, analyte = label, individual animals) was 7.68 ng/mL and 8.28 ng/mL, the “Concentration” value (mice, plasma, single p.o. LP-182 400 mg kg^−1, 0.167 h, analyte = label, individual animals) was 731 ng/mL and 1660 ng/mL and 900 ng/mL and the “Concentration” value (mice, plasma, single p.o. LP-182 400 mg kg^−1, 0.5 h, analyte = label, individual animals) was 2150 ng/mL and 2630 ng/mL. For the same compound, the “Concentration” value (mice, plasma, single p.o. LP-182 400 mg kg^−1, 1 h, analyte = label, individual animals) was 1580 ng/mL and 1950 ng/mL, the “Concentration” value (mice, plasma, single p.o. LP-182 400 mg kg^−1, 2 h, analyte = label, individual animals) was 424 ng/mL and 145 ng/mL and 74.1 ng/mL and the “Concentration” value (mice, plasma, single p.o. LP-182 400 mg kg^−1, 4 h, analyte = label, individual animals) was 146 ng/mL and 522 ng/mL and 339 ng/mL. For the same compound, the “Concentration” value (mice, plasma, single p.o. LP-182 400 mg kg^−1, 7 h, analyte = label, individual animals) was 331 ng/mL and 97.6 ng/mL and 1560 ng/mL, the “Concentration” value (mice, plasma, single p.o. LP-182 400 mg kg^−1, 16 h, analyte = label, individual animals) was 79.2 ng/mL and 205 ng/mL and 265 ng/mL and the “Concentration” value (mice, plasma, single p.o. LP-182 400 mg kg^−1, 24 h, analyte = label, individual animals) was 401 ng/mL and 114 ng/mL and 295 ng/mL.
